Test results as given in ChEMBL document CHEMBL4118148, “Design, synthesis and cardiovascular evaluation of some aminoisopropanoloxy derivatives of xanthone” (Bioorg Med Chem, 2018).
pIC50: −log10 of the molar value. Active and inactive are the calls of the source. The calls are words filed in the database; no cut-off is given here.

How the values were obtained:
[1] = target: Adrenergic receptor alpha-1 (Rattus norvegicus) (UniProt P15823+P23944+P43140); assay: Displacement of [3H][…]prazosin from adrenergic alpha1 receptor in Wistar rat cortex at 10^-5 M incubated for 30 mins by microbeta liquid scintillation counting analysis
[2] = target: Adrenergic receptor alpha-2 (Rattus norvegicus) (UniProt P22086+P19328+P22909); assay: Displacement of [3H]-clonidine from adrenergic alpha2 receptor in Wistar rat cortex at 10^-5 M incubated for 25 mins by microbeta liquid scintillation counting analysis
[3] = target: Beta-1 adrenergic receptor (Rattus norvegicus, UniProt P18090); assay: Displacement of [3H]-CGP-12177 from adrenergic beta1 receptor in Wistar rat cortex incubated for 60 mins by microbeta liquid scintillation counting analysis
[4] = target: Beta-2 adrenergic receptor (Cavia porcellus, UniProt Q8K4Z4); assay: Antagonist activity at adrenergic beta2 receptor in isolated guinea pig trachea assessed as inhibition of isoprenaline-induced bronchodilation incubated for 20 mins; type: functional; conditions: read-out: pA2 (converted)
[5] = test system: Rattus norvegicus; assay: In vivo inhibition of beta adrenoceptor in Wistar rat assessed as reduction in isoprenaline-induced tachycardia at 5 mg/kg, iv administered as single dose 10 mins prior to isoprenaline injection; type: functional, organism-based
[6] = test system: Rattus norvegicus; assay: Hypotensive activity in normotensive Wistar rat assessed as systolic blood pressure at 5 mg/kg, iv measured after 5 mins (reference value: 119.2 to 148.6 mmHg); type: functional
[7] = test system: Rattus norvegicus; assay: Hypotensive activity in normotensive Wistar rat assessed as diastolic blood pressure at 5 mg/kg, iv measured after 5 mins (reference value: 86.5 to 119.4 mmHg); type: functional
[8] = test system: Rattus norvegicus; assay: Hypotensive activity in normotensive Wistar rat assessed as systolic blood pressure at 5 mg/kg, iv measured after 10 mins (reference value: 119.2 to 148.6 mmHg); type: functional
[9] = test system: Rattus norvegicus; assay: Hypotensive activity in normotensive Wistar rat assessed as diastolic blood pressure at 5 mg/kg, iv measured after 10 mins (reference value: 86.5 to 119.4 mmHg); type: functional
[10] = test system: Rattus norvegicus; assay: Hypotensive activity in normotensive Wistar rat assessed as systolic blood pressure at 5 mg/kg, iv measured after 20 mins (reference value: 119.2 to 148.6 mmHg); type: functional
[11] = test system: Rattus norvegicus; assay: Hypotensive activity in normotensive Wistar rat assessed as diastolic blood pressure at 5 mg/kg, iv measured after 20 mins (reference value: 86.5 to 119.4 mmHg); type: functional
[12] = test system: Rattus norvegicus; assay: Hypotensive activity in normotensive Wistar rat assessed as systolic blood pressure at 5 mg/kg, iv measured after 30 mins (reference value: 119.2 to 148.6 mmHg); type: functional
[13] = test system: Rattus norvegicus; assay: Hypotensive activity in normotensive Wistar rat assessed as diastolic blood pressure at 5 mg/kg, iv measured after 30 mins (reference value: 86.5 to 119.4 mmHg); type: functional
[14] = test system: Rattus norvegicus; assay: Hypotensive activity in normotensive Wistar rat assessed as systolic blood pressure at 5 mg/kg, iv measured after 60 mins (reference value: 119.2 to 148.6 mmHg); type: functional
[15] = test system: Rattus norvegicus; assay: Hypotensive activity in normotensive Wistar rat assessed as diastolic blood pressure at 5 mg/kg, iv measured after 60 mins (reference value: 86.5 to 119.4 mmHg); type: functional
[16] = test system: Rattus norvegicus; assay: Hypotensive activity in normotensive Wistar rat assessed as reduction in systolic blood pressure administered iv measured after 60 mins; type: functional
[17] = test system: Rattus norvegicus; assay: Cardiotoxicity in Wistar rat assessed as effect on heart rate at 5 mg/kg, iv measured after 1 min (reference value: 323 to 374.5 bpm); type: toxicity, organism-based; conditions: in vivo
[18] = test system: Rattus norvegicus; assay: Cardiotoxicity in Wistar rat assessed as effect on PQ interval time at 5 mg/kg, iv measured after 1 min (reference value: 52 to 57 ms); type: toxicity, organism-based; conditions: in vivo
[19] = test system: Rattus norvegicus; assay: Cardiotoxicity in Wistar rat assessed as effect on QRS interval time at 5 mg/kg, iv measured after 1 min (reference value: 16.7 to 20.7 ms); type: toxicity, organism-based; conditions: in vivo
[20] = test system: Rattus norvegicus; assay: Cardiotoxicity in Wistar rat assessed as effect on QT interval time at 5 mg/kg, iv measured after 1 min (reference value: 57.7 to 61 ms); type: toxicity, organism-based; conditions: in vivo
[21] = test system: Rattus norvegicus; assay: Cardiotoxicity in Wistar rat assessed as effect on QTC interval time at 5 mg/kg, iv measured after 1 min (reference value: 136.7 to 146.2 ms); type: toxicity, organism-based; conditions: in vivo
[22] = test system: Rattus norvegicus; assay: Cardiotoxicity in Wistar rat assessed as effect on heart rate at 5 mg/kg, iv measured after 5 mins (reference value: 323 to 374.5 bpm); type: toxicity, organism-based; conditions: in vivo
[23] = test system: Rattus norvegicus; assay: Cardiotoxicity in Wistar rat assessed as effect on PQ interval time at 5 mg/kg, iv measured after 5 mins (reference value: 52 to 57 ms); type: toxicity, organism-based; conditions: in vivo
[24] = test system: Rattus norvegicus; assay: Cardiotoxicity in Wistar rat assessed as effect on QRS interval time at 5 mg/kg, iv measured after 5 mins (reference value: 16.7 to 20.7 ms); type: toxicity, organism-based; conditions: in vivo
[25] = test system: Rattus norvegicus; assay: Cardiotoxicity in Wistar rat assessed as effect on QT interval time at 5 mg/kg, iv measured after 5 mins (reference value: 57.7 to 61 ms); type: toxicity, organism-based; conditions: in vivo
[26] = test system: Rattus norvegicus; assay: Cardiotoxicity in Wistar rat assessed as effect on QTC interval time at 5 mg/kg, iv measured after 5 mins (reference value: 136.7 to 146.2 ms); type: toxicity, organism-based; conditions: in vivo
[27] = test system: Rattus norvegicus; assay: Cardiotoxicity in Wistar rat assessed as effect on heart rate at 5 mg/kg, iv measured after 15 mins (reference value: 323 to 374.5 bpm); type: toxicity, organism-based; conditions: in vivo, 0.25 h
[28] = test system: Rattus norvegicus; assay: Cardiotoxicity in Wistar rat assessed as effect on PQ interval time at 5 mg/kg, iv measured after 15 mins (reference value: 52 to 57 ms); type: toxicity, organism-based; conditions: in vivo, 0.25 h
[29] = test system: Rattus norvegicus; assay: Cardiotoxicity in Wistar rat assessed as effect on QRS interval time at 5 mg/kg, iv measured after 15 mins (reference value: 16.7 to 20.7 ms); type: toxicity, organism-based; conditions: in vivo, 0.25 h
[30] = test system: Rattus norvegicus; assay: Cardiotoxicity in Wistar rat assessed as effect on QT interval time at 5 mg/kg, iv measured after 15 mins (reference value: 57.7 to 61 ms); type: toxicity, organism-based; conditions: in vivo, 0.25 h
[31] = test system: Rattus norvegicus; assay: Cardiotoxicity in Wistar rat assessed as effect on QTC interval time at 5 mg/kg, iv measured after 15 mins (reference value: 136.7 to 146.2 ms); type: toxicity, organism-based; conditions: in vivo, 0.25 h
[32] = test system: Blood; assay: Anti-aggregative activity in Wistar rat whole blood assessed as inhibition of collagen-induced aggregation preincubated for 3 mins followed by collagen induction measured for 6 mins; type: functional, tissue-based
[33] = test system: Rattus norvegicus; assay: In vivo inhibition of beta adrenoceptor in Wistar rat assessed as reduction in isoprenaline-induced tachycardia at 1 mg/kg, iv administered as single dose 10 mins prior to isoprenaline injection; type: functional, organism-based
[34] = test system: Rattus norvegicus; assay: Antiarrhythmic activity in Wistar rat assessed as inhibition of adrenaline-induced premature ventricular extrasystoles administered iv 15 mins prior to adrenaline challenge; type: functional
[35] = test system: Blood; assay: Anti-aggregative activity in Wistar rat whole blood assessed as inhibition of collagen-induced aggregation up to 100 uM preincubated for 3 mins followed by collagen induction measured for 6 mins; type: functional, tissue-based
[36] = test system: Blood; assay: Anti-aggregative activity in Wistar rat whole blood assessed as inhibition of collagen/adrenaline-induced aggregation up to 100 uM preincubated for 3 mins followed by collagen induction measured for 6 mins; type: functional, tissue-based
[37] = (§1) Inhibition of voltage gated calcium channel in Wistar rat aorta assessed as relaxation of KCl-precontracted aortic rings by measuring reduction in calcium entry in presence of phentolamine
[38] = species: Rattus norvegicus; assay: as §1

Chain of Beta-1 adrenergic receptor (P18090 whole entry): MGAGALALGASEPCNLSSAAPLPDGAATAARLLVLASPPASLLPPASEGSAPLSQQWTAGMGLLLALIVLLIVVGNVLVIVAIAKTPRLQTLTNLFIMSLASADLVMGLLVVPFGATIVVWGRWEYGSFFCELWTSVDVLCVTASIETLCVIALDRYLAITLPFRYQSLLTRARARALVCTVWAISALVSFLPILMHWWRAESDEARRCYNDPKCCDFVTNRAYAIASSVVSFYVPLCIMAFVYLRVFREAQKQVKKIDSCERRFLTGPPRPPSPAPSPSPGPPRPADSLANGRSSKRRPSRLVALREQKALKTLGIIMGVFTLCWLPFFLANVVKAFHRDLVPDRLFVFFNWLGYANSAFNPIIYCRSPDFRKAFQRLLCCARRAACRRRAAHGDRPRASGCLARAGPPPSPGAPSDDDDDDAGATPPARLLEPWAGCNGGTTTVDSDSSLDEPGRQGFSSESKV
Chain of Beta-2 adrenergic receptor (Q8K4Z4 whole entry): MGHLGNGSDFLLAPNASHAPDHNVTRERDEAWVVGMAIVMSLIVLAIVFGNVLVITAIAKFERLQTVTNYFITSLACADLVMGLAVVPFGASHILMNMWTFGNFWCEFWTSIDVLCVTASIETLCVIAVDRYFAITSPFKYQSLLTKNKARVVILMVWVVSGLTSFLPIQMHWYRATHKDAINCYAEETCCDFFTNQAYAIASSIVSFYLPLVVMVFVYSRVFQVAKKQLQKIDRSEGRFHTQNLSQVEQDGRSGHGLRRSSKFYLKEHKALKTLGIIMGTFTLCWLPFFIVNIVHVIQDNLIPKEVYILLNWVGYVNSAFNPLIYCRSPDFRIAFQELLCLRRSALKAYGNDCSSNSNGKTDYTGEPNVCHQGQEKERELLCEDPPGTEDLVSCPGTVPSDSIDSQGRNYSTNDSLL

Cc1cccc2c(=O)c3ccc(OCC(O)CNC(C)(C)C)cc3oc12.Cl (racemic)
Activity [1]: inactive
Activity [2]: inactive
pIC50 [3]: 6.11
Kb [4]: 655 nM
inhibition [5]: Active
Activity [6]: 166.6 mmHg
Activity [7]: 129.2 mmHg
Activity [8]: 159.2 mmHg
Activity [9]: 125 mmHg
Activity [10]: 160 mmHg
Activity [11]: 126 mmHg
Activity [12]: 155.8 mmHg
Activity [13]: 123.8 mmHg
Activity [14]: 144 mmHg
Activity [15]: 114 mmHg
Activity [16]: inactive
Activity [17]: 337 bpm
Time [18]: 60.5 ms
Time [19]: 18 ms
Time [20]: 59 ms
Time [21]: 139.8 ms
Activity [22]: 310 bpm
Time [23]: 59.5 ms
Time [24]: 18.2 ms
Time [25]: 59.5 ms
Time [26]: 135.2 ms
Activity [27]: 339.2 bpm
Time [28]: 55.5 ms
Time [29]: 18.5 ms
Time [30]: 58.5 ms
Time [31]: 138.9 ms
pIC50 [32]: 4.20
inhibition [32]: Dose-dependent effect

COc1ccccc1OCCNCC(O)COc1cccc2[nH]c3ccccc3c12 (stereo unspecified) [CARVEDILOL]
inhibition [33]: Active
ED50 [34]: 1.05 mg/kg
inhibition [35]: inactive
inhibition [36]: inactive

CC(C)NCC(O)COc1cccc2ccccc12 (stereo unspecified) [PROPRANOLOL]
ED50 [34]: 0.36 mg/kg

COc1ccc(CCN(C)CCCC(C#N)(c2ccc(OC)c(OC)c2)C(C)C)cc1OC (stereo unspecified) [VERAPAMIL]
pIC50 [37]: 7.48
inhibition [38]: Dose-dependent effect
inhibition ([38]; concentration not given here): 95%
